Laboratory results taken from ChEMBL document CHEMBL1125167, “Synthesis and broad-spectrum antiviral activity of 7,8-dihydro-7-methyl-8-thioxoguanosine” (1990).

Columns and labels:
Banzi virus [1] = assay: Indicates the number of animals that died and survivors lived through 21 days at 25 mg/kg against Banzi virus; type: functional
Banzi virus [2] = assay: Indicates the number of animals that died and survivors lived through 21 days at 50 mg/kg against Banzi virus; type: functional
Coronaviridae = assay: Indicates the number of animals that died and survivors lived through 21 days at 100 mg/kg rat corona virus; type: functional, Coronavirus
[3] = tested on: Encephalomyocarditis virus; assay: Indicates the number of animals that died and survivors lived through 21 days at 50 mg/kg against EMC virus; type: functional
[4] = tested on: Encephalomyocarditis virus; assay: Indicates the number of animals that died and survivors lived through 21 days at 25 mg/kg against EMC virus; type: functional
San Angelo virus [5] = assay: Indicates the number of animals that died and survivors lived through 21 days at 25 mg/kg against San Angelo virus; type: functional
San Angelo virus [6] = assay: Indicates the number of animals that died and survivors lived through 21 days at 50 mg/kg against San Angelo virus; type: functional
Semliki Forest virus [7] = assay: Indicates the number of animals that died and survivors lived through 21 days at 25 mg/kg against Forest virus; type: functional
Semliki Forest virus [8] = assay: Indicates the number of animals that died and survivors lived through 21 days at 50 mg/kg against Forest virus; type: functional
[9] = Evaluated for its effect by the ratio between percent survivors and the total animals taken against Banzi virus infection at a dose of 25 mg/kg half-daily intraperitoneal doses at 24 and 18 hours before the virus inoculation; 11/12; type: functional
[10] = Evaluated for its effect by the ratio between percent survivors and the total animals taken against Banzi virus infection at a dose of 50 mg/kg half-daily intraperitoneal doses at 24 and 18 hours before the virus inoculation; 10/12; type: functional
[11] = Evaluated for its effect by the ratio between percent survivors and the total animals taken against EMC virus infection at a dose of 25 mg/kg half-daily intraperitoneal doses at 24 and 18 hours before the virus inoculation; 6/12; type: functional
[12] = Evaluated for its effect by the ratio between percent survivors and the total animals taken against EMC virus infection at a dose of 50 mg/kg half-daily intraperitoneal doses at 24 and 18 hours before the virus inoculation; 9/12; type: functional
[13] = Evaluated for its effect by the ratio between percent survivors and the total animals taken against San Angelo virus infection at a dose of 25 mg/kg half-daily intraperitoneal doses at 24 and 18 hours before the virus inoculation; 9/12; type: functional
[14] = Evaluated for its effect by the ratio between percent survivors and the total animals taken against San Angelo virus infection at a dose of 50 mg/kg half-daily intraperitoneal doses at 24 and 18 hours before the virus inoculation; 10/12; type: functional
[15] = Evaluated for its effect by the ratio between percent survivors and the total animals taken against Forest virus infection at a dose of 25 mg/kg half-daily intraperitoneal doses at 24 and 18 hours before the virus inoculation; 9/12; type: functional
[16] = Evaluated for its effect by the ratio between percent survivors and the total animals taken against Forest virus infection at a dose of 50 mg/kg half-daily intraperitoneal doses at 24 and 18 hours before the virus inoculation; 10/12; type: functional
[17] = Evaluated for its effect by the ratio between percent survivors and the total animals taken against rat corna virus infection at a dose of 100 mg/kg half-daily intraperitoneal doses at 24 and 18 hours before the virus inoculation; 7/12; type: functional
[18] = Ratio between percent survivors and the total animals taken against EMC virus infection at a dose of 50 mg/kg half-daily intraperitoneal doses at 24 and 18 hours before the virus inoculation; 9/12; type: functional
[19] = Ratio between percent survivors and the total animals taken against San Angelo virus infection at a dose of 25 mg/kg half-daily intraperitoneal doses at 24 and 18 hours before the virus inoculation; 11/12; type: functional
[20] = Ratio between percent survivors and the total animals taken against San Angelo virus infection at a dose of 50 mg/kg half-daily intraperitoneal doses at 24 and 18 hours before the virus inoculation; 11/12; type: functional
[21] = Ratio between percent survivors and the total animals taken against Forest virus infection at a dose of 25 mg/kg half-daily intraperitoneal doses at 24 and 18 hours before the virus inoculation; 8/12; type: functional
[22] = Ratio between percent survivors and the total animals taken against Forest virus infection at a dose of 50 mg/kg half-daily intraperitoneal doses at 24 and 18 hours before the virus inoculation; 9/12; type: functional
[23] = Ratio between percent survivors and the total animals taken against rat corona virus infection at a dose of 100 mg/kg half-daily intraperitoneal doses at 24 and 18 hours before the virus inoculation; 9/12; type: functional
[24] = Ratio between percent survivors and the total animals taken against Banzi virus infection at a dose of 50 mg/kg half-daily intraperitoneal doses at 24 and 18 hours before the virus inoculation; 12/12; type: functional
[25] = Ratio between percent survivors and the total animals taken against EMC virus infection at a dose of 25 mg/kg half-daily intraperitoneal doses at 24 and 18 hours before the virus inoculation; 8/12; type: functional
[26] = Ratio between percent survivors and the total animals taken against Banzi virus infection at a dose of 25 mg/kg half-daily intraperitoneal doses at 24 and 18 hours before the virus inoculation; 11/12; type: functional

SMILES | Mean survival time (Banzi virus [1]) [days] | Mean survival time (Banzi virus [2]) [days] | Mean survival time (Coronaviridae) [days] | Mean survival time [3] [days] | Mean survival time [4] [days] | Mean survival time (San Angelo virus [5]) [days] | Mean survival time (San Angelo virus [6]) [days] | Mean survival time (Semliki Forest virus [7]) [days] | Mean survival time (Semliki Forest virus [8]) [days] | further results
Cn1c(=S)n(C2O[C@H](CO)[C@@H](O)[C@H]2O)c2nc(N)nc(O)c21 (stereo partly specified) | 9 | 9 | 9.4 | 5.7 | 5.5 | 11.3 | 10.5 | 8 | 9 | Ratio [9]: 11; Ratio [10]: 10; Ratio [11]: 6; Ratio [12]: 9; Ratio [13]: 9; Ratio [14]: 10; Ratio [15]: 9; Ratio [16]: 10; Ratio [17]: 7
Cn1c(=O)n(C2O[C@H](CO)[C@@H](O)[C@H]2O)c2nc(N)nc(O)c21 (stereo partly specified) | 8 | >21 | 9.7 | 8 | 8.3 | 12 | 10 | 8.7 | 9.7 | Ratio [18]: 9; Ratio [19]: 11; Ratio [20]: 11; Ratio [21]: 8; Ratio [22]: 9; Ratio [23]: 9; Ratio [24]: 12; Ratio [25]: 8; Ratio [26]: 11
